Key:
[1] = assay type: physicochemical; details: water-oil emulsion
Description: This surprising and unexpected finding meant that it was necessary to identify a carrier/vehicle system that would accommodate EV in a soluble form and at the same time maintain its chemical stability (defined herein as at least 95% of the ethyl vanillin remaining chemically intact for at least 3 months). In one formulation contemplated herein, EV is dissolved in caprylic/capric triglyceride or other fatty acid triglyceride and then mixed into a silicone fluid wherein the silicone is the primary (greatest percentage) component of the formulation. The cosmetic silicone fluid used in this embodiment accepts the caprylic/capric triglyceride and allows the EV to remain in solution. […] Therefore, the presently claimed and disclosed inventive concept(s) contemplates formulations of EV in non-aqueous solutions, particularly comprising at least 20% to 25% to 30% to 35% to 40% to 45% to 50%, or up to 60%, 70%, 80% or 90% silicone thereby explicitly excluding water-in-oil, or oil-in-water, emulsions. Additionally, besides caprylic capric triglyceride, EV can be solubilized in jojoba oil, sunflower oil or squalane or any other solubilizer which is accepted by the silicones. […]

collagen 1 mRNA = assay: Collagen mRNA in fibroblasts by RT-PCR; assay type: cell-based, human; details: fibroblast cell cultures treated 72 hours
From the text: (§1) The presently claimed and disclosed inventive concept(s) further contemplates use of various DHE, IE and EV compositions and salts, esters, ethers, and derivatives thereof to mitigate the effects of aging on the skin. For all aging studies, normal human fibroblast cell cultures were used. These cells normally produce collagen, elastin and hyaluronic acid. As the skin ages, the fibroblasts in the dermis lose their ability to produce these three key components of skin, and the skin consequently loses elasticity, thickness and smooth texture. In addition, as fibroblasts age, they increase the expression of certain enzymes that destroy collagen and elastin. There are about 13 of these enzymes, collectively referred to as MMPs (matrix metalloproteinases). One of the principal MMPs, MMP-1, is responsible for collagen degradation. […] Fibroblast cell cultures were treated with either IE, DHE or EV for 72 hours at which time the amount of collagen mRNA present in the cells was determined.

[2] = system: MMP-1, MMP-3, MMP-8, MMP-9 MMP-10 and MMP-13; assay: MMP protein abundance in human dermal fibroblasts (protein array blotting); assay type: cell-based
From the text: As mentioned above, as fibroblasts age they increase their production of MMP enzymes that destroy collagen and elastin, particularly collagenase, MMP-1. We utilized a protein array blotting technique to determine the effect of DHE, IE and EV on the protein abundance of these enzymes. As shown below, EV is able to reduce the level of several MMPs in human dermal fibroblasts, including MMP-1, MMP-3, MMP-8, MMP-9 MMP-10 and MMP-13 (FIG. 12). This remarkable effect makes this compound an ideal addition to an anti-aging product since MMP levels in aging skin are quite high.

[3] = system: HAS-2 (Hyaluronic acid synthase-2); assay: HAS-2 mRNA in fibroblasts by RT-PCR; assay type: cell-based, human; details: 72 hours
From the text: (§2) The presently claimed and disclosed inventive concept(s) further contemplates use of various DHE, IE and EV compositions and salts, esters, ethers, and derivatives thereof to mitigate the effects of aging on the skin. For all aging studies, normal human fibroblast cell cultures were used. These cells normally produce collagen, elastin and hyaluronic acid. As the skin ages, the fibroblasts in the dermis lose their ability to produce these three key components of skin, and the skin consequently loses elasticity, thickness and smooth texture. In addition, as fibroblasts age, they increase the expression of certain enzymes that destroy collagen and elastin. There are about 13 of these enzymes, collectively referred to as MMPs (matrix metalloproteinases). One of the principal MMPs, MMP-1, is responsible for collagen degradation. For experiments herein to determine the effects of DHE, IE and EV on collagen, elastin and hyaluronic acid, fibroblasts were treated with the compounds for 72 hours, mRNA was then isolated, and analyzed for abundance by RT-PCR (Reverse transcriptase-Polymerase Chain Reaction).
DHE, IE and EV, are also shown herein to stimulate mRNA for HAS-2. HAS-2 (Hyaluronic acid synthase-2) is the enzyme that manufactures hyaluronic acid (HA) in the skin. HA is a glycosaminoglycan important for maintaining moisture and suppleness in the skin. […] As the skin ages, the production of HA decreases and this causes the skin to sag and become thin.

elastin mRNA = assay: Elastin mRNA in human dermal fibroblasts by RT-PCR; assay type: cell-based; details: 72 hours
From the text: as §1, with “In addition, as fibroblasts age, they increase the expression of certain enzymes that destroy collagen and elastin.” left out, “The image is from an electrophoresis gel of DNA amplified by PCR from fibroblast mRNA. This gel was analyzed and” for “Fibroblast cell cultures were treated with either IE, DHE or EV for 72 hours at which time”, “density” for “amount”, “each band quantified by image analysis software.” for “collagen mRNA present in the cells was determined.”

TIMP-1 = TIMP-1 mRNA in fibroblasts by PCR; assay type: cell-based, human
From the text: as §2
Fibroblasts in the skin not only produce enzymes (MMPs) that destroy the skin matrix but they also produce proteins (Tissue Inhibitors of Metalloproteinases, i.e., TIMPS) that inhibit these enzymes. There are several TIMPs, but one that is most important for inhibiting MMPs is TIMP-1. […] Shown in FIG. 11 is PCR data showing the up-regulation of TIMP-1 mRNA by these compounds.

[4] = system: human melanocyte cultures; assay: Pigment in human melanocyte cultures; assay type: cell-based; details: treated for 9 days
tyrosinase [5] = assay: Western immunoblot of tyrosinase abundance in human melanocyte extracts; assay type: cell-based
From the text: (§3) FIGS. 14-17 show the skin-lightening effects of topically-applied formulations of isoeugenol and its ester isoeugenol acetate (a.k.a. isoeugenyl acetate) in the treatment of hyperpigmented areas in the skin, wherein a reduction of melanin pigment in the skin is caused by the topical application of the formulations. In addition to blocking a post-tyrosinase step in melanin synthesis, IE and IE acetate can inhibit the expression of the tyrosinase protein in human melanocytes. […] If the cell extracts contain tyrosinase when an aliquot of extract is placed in a tube containing L-DOPA (a tyrosinase substrate) in buffer, the enzyme will convert the DOPA to melanin. The melanin will appear brownish-black in the assay tube. If IE or IE-acetate has inhibited tyrosinase synthesis in melanocytes, then the extracts from these cells will contain no enzyme and will not be able to produce melanin from DOPA in the assay tube. […] In this assay, cell extracts from human melanocytes either left untreated or treated with 200 micromolar of either IE or isoeugenol acetate for 9 days are run on SDS polyacrylamide electrophoresis gels to separate tyrosinase from other proteins. The tyrosinase in the gel is then blotted to a membrane and the tyrosinase detected by staining with a specific anti-tyrosinase antibody. The antibody-bound tyrosinase is then visualized by chemiluminescence.

tyrosinase [6] = assay: DOPA oxidase assay of cell extracts from treated human melanocytes; assay type: cell-based; details: extracts of human melanocytes treated for 9 days
Description: Cell lysates were prepared from human melanocytes. The amount of tyrosinase in these cell lysates was determined by DOPA oxidase assay.
as §3

Row | Structure (SMILES) | time within which EV significantly decomposes [1] | collagen production (collagen mRNA) (collagen 1 mRNA) | level of several MMPs (protein abundance) [2] | mRNA for HAS-2 [3] | elastin levels (elastin mRNA) (elastin mRNA) | production of TIMP-1 (TIMP-1 mRNA) (TIMP-1) | pigment in human melanocyte cultures [4] | tyrosinase abundance (relative densitometric units) (tyrosinase [5]; human melanocyte extracts, 200 μM, 9 days, control approximately 7.25 RDU) | tyrosinase present (western immunoblot) (tyrosinase [5]; human melanocytes treated with 200 micromolar for 9 days) | tyrosinase activity / melanin made from L-DOPA by cell extracts (tyrosinase [6]; listed as IE-acetate) | tyrosinase activity / melanin made from L-DOPA by cell extracts (tyrosinase [6]; listed as TH-213)
1 | CCOc1cc(C=O)ccc1O [EV, ethyl vanillin] | 24 to 48 h | stimulation | reduce | stimulate | increase | significantly stimulate |  |  |  |  | 
2 | CC=Cc1ccc(OC(C)=O)c(OC)c1 [isoeugenol acetate] |  |  |  |  |  |  | loss of pigment | ~3.75 RDU | almost no detectable tyrosinase | very little melanin was made | absence of tyrosinase activity

Reference: US9616006B2, “Methods and compositions for treating dermatological diseases and conditions” (priority 2007, dated 2017)
